Counter-ions that a name gives are not always drawn.
Assays:
human LSD1 = human LSD1 (Homo sapiens, UniProt O60341); experiment: In vitro enzyme activity screening against LSD1 (HRP/Amplex Red fluorescence coupling enzyme method); format: biochemical; details: human LSD1, histone H3K4me peptide substrate 20 μM
Experimental: The purpose of this test was to detect the in vitro inhibitory activity of the compounds against LSD1. The enzyme used in this test was human LSD1, the standard substrate was histone H3K4me peptide (20 μM), the fluorescence coupling enzyme method was used to determine the activity of the compound by combining horseradish peroxidase (HRP) and fluorescent reagent Amplex Red to detect the H2O2 generation as a result of the reaction of LSD1. Compounds were tested in 10-dose IC50 mode with a 3-fold serial dilution starting at 10 μM. The enzyme and […] to start the reaction. Fluorescence detector: Envision, excitation wavelength: Ex/Em=530/590 […]

NCI-H1417 cells = experiment: Antiproliferation activity on NCI-H1417 cells (CellTiter-Glo, 10 days); format: cell-based, human; details: Homo sapiens, NCI-H1417, 240 h, incubated for 10 days
Experimental: Experimental purpose: to detect the antiproliferation activity of the compounds on NCI-H1417 cells.
Experimental materials: RPMI 1640 culture medium, fetal bovine serum, Promega CellTiter-Glo reagent. NCI-H1417 cell line purchased from ATCC. Envision multi-label reader (PerkinElmer).
Experimental method: the compounds were dissolved to 10 mM, then the compounds were diluted 5 times with DMSO in a compound plate, the compounds were diluted 3-fold with Bravo from a starting concentration of 2 mM to the 10th concentration, 250 nL of the solutions were transferred to the upper and lower duplicate wells on a blank 384 cell plate by Echo transfer plate, cell suspension of per well/1000 cells/50 μL was added to the transferred 250 nL DMSO/compound, the compounds were diluted 200-fold, i.e., the initial action concentration was 10 μM. The cell plate was placed in a carbon dioxide incubator and incubated for 10 days. 25 μL of Promega CellTiter-Glo reagent was added to each well on the cell plate and was shaken at room temperature for 10 minutes to stabilize the luminescence signal. Readings were performed by PerkinElmer Envision multi-label analyzer.
Data analysis: the equation (Max-Ratio)/(Max-Min)*100% was used to convert the original data into the inhibition rate, the value of IC50 can be obtained by curve fitting of four-parameters (the 205 mode in XLFITS, iDBS).

MV-4-11 cells = experiment: Antiproliferation activity on MV-4-11 cells (CellTiter-Glo, 6 days); format: cell-based; details: Homo sapiens, MV4-11, 144 h, incubated for 6 days
Text: Experimental purpose: to detect the antiproliferation activity of the compound to be tested on MV-4-11 cells.
(§1) Experimental materials: IMDM culture medium, fetal bovine serum, penicillin/streptomycin antibiotics purchased from Wisent. CellTiter-Glo (chemiluminescent cell viability assay reagent) reagents purchased from Promega. MV-4-11 cell line was purchased from Nanjing Cobioer Co., Ltd. Nivo Multi-Marker Analyzer (PerkinElmer).
Experimental method: MV-4-11 cells were planted in a white 96-well plate, 80 μL of cell suspension per well, which contained 6000 MV-4-11 cells. The cell plate was placed in a carbon dioxide incubator for overnight culture.
The compounds to be tested were diluted 5-fold with a pipet until the 8th concentration, i.e., diluted from 2 mM to 25.6 nM, double duplicate well experiment was set. 78 μL of the culture medium was added to an intermediate plate, and then 2 μL per well of the serially diluted compounds were transferred to the corresponding positions on the intermediate plate, after mixing, 20 μL per well was transferred to the cell plate. The cell plate was incubated in a carbon dioxide incubator for 6 days. Another cell plate was prepared and the signal value on the day of dosing was read as the maximum value (Max value in the equation below) to participate in the data analysis. 25 μL of the chemiluminescent cell viability assay reagent was added to each well of this cell plate, which was incubated at room temperature for 10 minutes to stabilize the luminescence signal. The multi-label analyzer was used for reading.
(§2) Data analysis: the equation (Sample-Min)/(Max-Min)*100% was used to convert the original data into the inhibition rate, the IC50 value can be obtained by curve fitting of four-parameters (“log(inhibitor) vs. response—Variable slope” mode in GraphPad Prism)).

HL60 cells = experiment: Antiproliferation activity on HL60 cells (CellTiter-Glo, 6 days); format: cell-based; details: Homo sapiens, HL-60, 144 h, incubated for 6 days
Text: Experimental purpose: to detect the antiproliferation activity of the compound to be tested on HL60 cells.
as §1, with “RPMI-1640” for “IMDM”, “HL60” for “MV-4-11”, “line” for “line was”, “multi-label reader” for “Multi-Marker Analyzer”
Experimental method: HL60 cells were planted in a white 384-well plate, 40 μL of cell suspension per well, 600 HL60 cells were contained therein. The cell plate was placed in a carbon dioxide incubator for overnight culture. The compounds to be tested were diluted 5-fold with a pipet until the 10th concentration, i.e., diluted from 2 mM to 1.024 nM, double duplicate well experiment was set. 78 μL of the culture medium was added to an intermediate plate, and then 2 μL per well of the serially diluted compounds were transferred to the corresponding positions on the intermediate plate, after mixing, 10 μL per well was transferred to the cell plate. The cell plate was incubated in a carbon dioxide incubator for 6 days. Another cell plate was prepared and the signal value on the day of dosing was read as the maximum value (Max value in the equation below) to participate in the data analysis. 20 μL of chemiluminescent cell viability assay reagent was added to each well of this cell plate, which was incubated at room temperature for 10 minutes to stabilize the luminescence signal. The multi-label reader was used for reading.
as §2

[1] = In vivo pharmacokinetics in CD-1 mice; details: male, CD-1, mouse, plasma, male CD-1 mice
Experimental: CD-1 mice (male, 7-9 weeks old, Shanghai Slac)
The rodent pharmacokinetic characteristics after intravenous injection and oral administration of the compounds were tested by standard protocols, in the experiment, the candidate compounds were formulated into clear solutions and administrated to mice via a single intravenous injection and oral administration. The vehicle for intravenous injection and oral administration was a mixed solution of 10% of dimethyl sulfoxide and 90% of 10% hydroxypropyl β cyclodextrin. This project used four male CD-1 mice, two mice were administered intravenously, with a dose of 1 mg/kg, and plasma samples were collected at 0 hour (before administration) and 0.0833, 0.25, 0.5, 1, 2, 4, 8, 24 hours after administration. The other two mice were orally administered by gavage, with a dose of 2 mg/kg, plasma samples were collected at 0 hour (before administration) and 0.25, 0.5, 1, 2, 4, 8, 24 hours after administration, whole blood samples were collected within 24 hours, which were centrifuged at 3000 g for 15 minutes, and the supernatants were separated to obtain plasma samples, 4 times volume of acetonitrile solutions containing internal standard were added to precipitate the protein, the mixtures were centrifuged to obtain the supernatants, the supernatants were added with water of equal volume and centrifuged again to take the supernatant for injection, and the blood drug concentration was quantitatively analyzed by the LC-MS/MS analysis method, and pharmacokinetic parameters were calculated, such as max concentration (Cmax), clearance (CL), half-life (T1/2), volumes of distribution (Vdss), the area under the plasma concentration-time curve (AUC0-last), bioavailability (F) etc.

SMILES: N#Cc1ccc(CN2CCC3(CC2)CC(N[C@@H]2C[C@H]2c2ccccc2)CO3)cc1 (stereo partly shown) [Hydrochloride of the compound 21]
- IC50 (human LSD1): 92.2 nM
- IC50 (NCI-H1417 cells): 1.12 nM
- IC50 (MV-4-11 cells): 0.46 nM
- IC50 (HL60 cells): 1.17 nM

SMILES: O=C(O)C1(CN2CCC3(CC2)CC(N[C@@H]2C[C@H]2c2ccccc2)CO3)CCC1 (stereo partly shown) [Hydrochloride of the compound 30]
- IC50 (human LSD1): 1140 nM
- IC50 (NCI-H1417 cells): 91.4 nM
- IC50 (MV-4-11 cells): 33.1 nM
- IC50 (HL60 cells): 337 nM

SMILES: O=C(O)CC1(N2CCC3(CC2)CC(N[C@@H]2C[C@H]2c2ccccc2)CO3)CNC1 (stereo partly shown) [Hydrochloride of the compound 32]
- IC50 (human LSD1): 1160 nM
- IC50 (NCI-H1417 cells): 3.97 nM
- IC50 (MV-4-11 cells): 1.9 nM
- IC50 (HL60 cells): 0.55 nM

SMILES: NC1(C(=O)N2CCC3(CC2)CC(N[C@@H]2C[C@H]2c2ccccc2)CO3)CC1 (stereo partly shown) [Hydrochloride of the compound 34]
- half-life ([1]; iv, 1 mg/kg, IV 1 mg/kg, read-out: Half-life T1/2 (IV) (converted)): 1.39 h
- clearance ([1]; iv, 1 mg/kg, study doses 1 mg/kg intravenous, 2 mg/kg oral, read-out: Clearance CL): 25.3 mL/min/kg
- Vd ([1]; iv, 1 mg/kg, study doses 1 mg/kg intravenous, 2 mg/kg oral, read-out: Volumes of distribution Vdss): 2.09 L/kg
- Cmax ([1]; study doses 1 mg/kg intravenous, 2 mg/kg oral, route not given, read-out: Max concentration Cmax): 1150 nM
- AUC(0-t) ([1]; po, 2 mg/kg, PO 2 mg/kg, read-out: The area under the plasma concentration-time curve AUC0-last PO): 2.14 µM·h
- bioavailability ([1]; po, 2 mg/kg, oral 2 mg/kg vs intravenous 1 mg/kg, read-out: Bioavailability F): 58.3%
- IC50 (human LSD1): 38.4 nM
- IC50 (NCI-H1417 cells): 4.38 nM
- IC50 (MV-4-11 cells): 1.37 nM
- IC50 (HL60 cells): 1.92 nM
